Non-standard residues stand in square brackets, D forms with d. *: point of attachment. dPhe(4-Cl) = N[C@H](Cc1ccc(Cl)cc1)C(=O)O; d2Nal = N[C@H](Cc1ccc2ccccc2c1)C(=O)O; d3Pal = N[C@H](Cc1cccnc1)C(=O)O; Carbamoyl = NC(=O)*; iPr = CC(C)*
Key:
[1] = system: plasma testosterone; assay: Suppression of plasma testosterone in rats after i.m. injection; assay type: in vivo; conditions: 300 μg/kg i.m.
Source text: The effect of an LHRH antagonist peptide of Example 1 of the present invention was compared to the effect of "Antide", cf. A. Ljungqvist et al., Biochem. Biophys. Res. Comm., 148, 849-858 (1987)., an LHRH antagonist of the prior art. Both LHRH antagonists were intermuscularly injected into 6 rats at a dosage of 300 mcg/kg.

[2] = system: rats; assay: Test for anaphylactoid properties in rats; assay type: in vivo; conditions: six rats, injected with 5 mg/kg, observed over a 24 hour period
Description: Six rats were utilized to test the LHRH antagonist peptide of Example 1 of the present invention for anaphylactoid properties. Each of the six rats was injected with 5 mg/kg of the test peptide.

[3] = assay type: physicochemical
Source text: An aqueous solution of the peptide of Example 1 was mixed with an aqueous solution of sodium pamoate.

| Substance | plasma testosterone, 0 hr [1] | plasma testosterone, 24 hr ([1]; 24 hr) | plasma testosterone, 48 hr ([1]; 48 hr) | mortality or other signs of anaphylactoid reactions [2] | effectiveness relative to Antide at 24 hour suppression of plasma testosterone ([1]; 24 hr) | effectiveness relative to Antide at 48 hours, suppression of plasma testosterone ([1]; 48 hr) | solubility in water [3] |
| --- | --- | --- | --- | --- | --- | --- | --- |
| Antide [reference compound] | 3.35 ± 2.51 | 0.78 ± 0.37 | 1.96 ± 0.95 | – | – | – | – |
| Example 1: LHRH antagonist peptide SEQ ID NO.: 1: N-acetyl-D-3-(2-naphthyl)-Ala1, D-3-(4-chlorophenyl)-alanine2, D-3(3-pyridyl)-Ala3, D-6-carbamoyl lysine6, Nε-isopropyl-Lys8, D-Ala-NH2 at 10 (Ac-[d2Nal][dPhe(4-Cl)][d3Pal]SY[dK](Carbamoyl)LK(iPr)P[dA]-NH2) | 5.46 ± 3.32 | 0.067 ± 0.030 | 0.84 ± 0.28 | No mortality or other signs of anaphylactoid reactions were observed | more than about ten times as effective as Antide | more than twice as effective as Antide | freely soluble in water |
| Example 2: LHRH antagonist peptide SEQ ID NO.: 2: as SEQ ID NO.: 1 at positions 1, 2, 3, 6, 8; position 9 is Pro-NHCH2 CH3 (Ac-[d2Nal][dPhe(4-Cl)][d3Pal]SY[dK](Carbamoyl)LK(iPr)P-NHEt; SMILES CCNC(=O)[C@@H]1CCCN1C(=O)[C@H](CCCCNC(C)C)NC(=O)[C@H](CC(C)C)NC(=O)[C@@H](CCCCNC(N)=O)NC(=O)[C@H](Cc1ccc(O)cc1)NC(=O)[C@H](CO)NC(=O)[C@@H](Cc1cccnc1)NC(=O)[C@@H](Cc1ccc(Cl)cc1)NC(=O)[C@@H](Cc1ccc2ccccc2c1)NC(C)=O) | – | – | – | – | – | – | water soluble |

— patent publication US5516887A, “Luteinizing hormone releasing hormone antagonist peptides” (Deghenghi; Romano, priority 1994, dated 1996)
